We go through 15 compounds from patent publication US20110182850A1, “ORGANIC COMPOUNDS AND THEIR USES” (priority 2009, published 2011).

T1 sequence (P26664 1658-1711): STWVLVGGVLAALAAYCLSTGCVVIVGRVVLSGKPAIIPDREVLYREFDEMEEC
T1 sequence (P26664 1027-1657): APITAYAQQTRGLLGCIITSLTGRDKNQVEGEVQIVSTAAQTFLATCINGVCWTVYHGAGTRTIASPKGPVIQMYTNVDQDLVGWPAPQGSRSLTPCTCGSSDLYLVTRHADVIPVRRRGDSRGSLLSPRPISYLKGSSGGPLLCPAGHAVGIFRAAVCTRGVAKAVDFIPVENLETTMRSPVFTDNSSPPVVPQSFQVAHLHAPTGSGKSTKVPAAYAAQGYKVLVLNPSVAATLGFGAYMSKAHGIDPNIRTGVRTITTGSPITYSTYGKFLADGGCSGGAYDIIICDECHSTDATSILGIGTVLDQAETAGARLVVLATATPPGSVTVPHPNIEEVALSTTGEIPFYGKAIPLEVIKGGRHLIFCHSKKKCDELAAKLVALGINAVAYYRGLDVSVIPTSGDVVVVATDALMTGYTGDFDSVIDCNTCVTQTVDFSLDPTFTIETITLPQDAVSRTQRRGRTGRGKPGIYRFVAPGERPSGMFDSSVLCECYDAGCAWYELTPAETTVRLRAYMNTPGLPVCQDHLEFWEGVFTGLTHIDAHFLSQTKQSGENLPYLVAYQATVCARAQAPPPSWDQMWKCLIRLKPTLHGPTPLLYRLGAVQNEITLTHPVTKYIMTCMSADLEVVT

The first experiment has as its target T1, HCV NS3-4A serine protease (full-length NS3-4A protein, genotype 1a, strain HCV-1) (Hepatitis C virus genotype 1a, UniProt P26664).
T1 construct: using the full-length NS3-4A protein (genotype 1a, strain HCV-1)
As to the kind of experiment: HCV NS3-4A protease assay. Type of experiment: biochemical. The following applies: Protease IC50. The procedure:
The inhibitory activity of certain compounds of Table A against HCV NS3-4A serine protease is determined in a homogenous assay using the full-length NS3-4A protein (genotype 1a, strain HCV-1) and a commercially available internally-quenched fluorogenic peptide substrate as described by Taliani, M., et al. 1996 Anal. Biochem. 240:60-67, which is incorporated by reference in its entirety.
The IC50 is the concentration that inhibits the measured activity by half. Turning to `C=C[C@@H]1C[C@]1(NC(=O)[C@@H]1C[C@@]2(CN1C(=O)[C@@H](NC(=O)[C@@H](NC(=O)[C@@H]1CCCCN1C(C)C)C(C)(C)C)C(C)(C)C)C(C)(C)C21CCC1)C(=O)NS(=O)(=O)c1ccccc1` [Compound 17, (5R,8S)-7-[(2S)-2-{[(2S)-2-({[(2S)-1-isopropylpiperidin-2-yl]carbonyl}amino)-3,3-dimethylbutanoyl]amino}-3,3-dimethylbutanoyl]-10,10-dimethyl-N-{(1R,2S)-1-[(phenylsulfonyl)carbamoyl]-2-vinylcyclopropyl}-7-azadispiro[3.0.4.1]decane-8-carboxamide], the IC50 came to 4.5 nM.

On to `C=C[C@@H]1C[C@]1(NC(=O)[C@@H]1C[C@@]2(CN1C(=O)[C@@H](NC(=O)[C@@H](NC(=O)[C@@H]1CCCCN1C(C)C)C(C)(C)C)C(C)(C)C)C(C)(C)C21CCC1)C(=O)NS(=O)(=O)Cc1ccccc1` [Compound 22, (5R,8S)-N-{(1R,2S)-1-[(benzylsulfonyl)carbamoyl]-2-vinylcyclopropyl}-7-[(2S)-2-{[(2S)-2-({[(2S)-1-isopropylpiperidin-2-yl]carbonyl}amino)-3,3-dimethylbutanoyl]amino}-3,3-dimethylbutanoyl]-10,10-dimethyl-7-azadispiro[3.0.4.1]decane-8-carboxamide], for which half-maximal inhibition (IC50) was put at 14 nM.

The compound `CC(C)N1CCCC[C@H]1C(=O)N[C@H](C(=O)N[C@H](C(=O)N1C[C@]2(C[C@H]1C(=O)NC1(C(=O)NS(=O)(=O)C3CC3)CC=CC1)C(C)(C)C21CCC1)C(C)(C)C)C(C)(C)C` [Compound 23, (5R,8S)-N-{1-[(cyclopropylsulfonyl)carba-moyl]cyclopent-3-en-1-yl}-7-[(2S)-2-{[(2S)-2-({[(2S)-1-isopropylpiperidin-2-yl]carbonyl}amino)-3,3-dimethylbutanoyl]amino}-3,3-dimethylbutanoyl]-10,10-dimethyl-7-azadispiro[3.0.4.1]decane-8-carboxamide] showed an IC50 of 1250 nM.

In turn, `CC(C)(C)[C@H](NC(=O)[C@@H]1CCCCN1CCF)C(=O)N[C@H](C(=O)N1C[C@]2(C[C@H]1C(=O)NC1(C(=O)NS(=O)(=O)C3CC3)CC=CC1)C(C)(C)C21CCC1)C(C)(C)C` [Compound 24, (5R,8S)-N-{1-[(cyclopropylsulfonyl)carba-moyl]cyclopent-3-en-1-yl}-7-[(2S)-2-{[(2S)-2-({[(2S)-1-(2-fluoroethyl)piperidin-2-yl]carbonyl}amino)-3,3-dimethylbutanoyl]amino}-3,3-dimethylbutanoyl]-10,10-dimethyl-7-azadispiro[3.0.4.1]decane-8-carboxamide] returned a half-maximal inhibitory concentration (IC50) of 5250 nM.

On to `CC(C)N1CCCCC1C(=O)N[C@H](C(=O)N[C@H](C(=O)N1C[C@]2(C[C@H]1C(=O)N[C@]1(C(=O)NS(=O)(=O)C3CC3)CC=CCC1)C(C)(C)C21CCC1)C(C)(C)C)C1CCCCC1` (stereo partly drawn) [Compound 25, (5R,8S)-7-[(2S)-2-{[(2S)-2-cyclohexyl-2-{[(1-isopropylpiperidin-2-yl)carbonyl]amino}acetyl]amino}-3,3-dimethylbutanoyl]-N-{(1S)-1-[(cyclopropylsulfonyl)carba-moyl]cyclohex-3-en-1-yl}-10,10-dimethyl-7-azadispiro[3.0.4.1]decane-8-carboxamide], for which half-maximal inhibition (IC50) was put at 550 nM.

`CC(C)N1CCCCC1C(=O)N[C@H](C(=O)N[C@H](C(=O)N1C[C@]2(C[C@H]1C(=O)N[C@]1(C(=O)NS(=O)(=O)C3CC3)CC=CCC1)C(C)(C)C21CCC1)C(C)(C)C)C(C)(C)C` (stereo partly drawn) [Compound 26, (5R,8S)-N-{(1S)-1-[(cyclopropylsulfonyl)carba-moyl]cyclohex-3-en-1-yl}-7-[(2S)-2-{[(2S)-2-{[(1-isopropylpiperidin-2-yl)carbonyl]amino}-3,3-dimethylbutanoyl]amino}-3,3-dimethylbutanoyl]-10,10-dimethyl-7-azadispiro[3.0.4.1]decane-8-carboxamide] displayed an IC50 of 2950 nM.

Regarding `CC(C)(C)[C@H](NC(=O)[C@@H](NC(=O)C1CCCCN1CCF)C1CCCCC1)C(=O)N1C[C@]2(C[C@H]1C(=O)N[C@]1(C(=O)NS(=O)(=O)C3CC3)CC=CCC1)C(C)(C)C21CCC1` (stereo partly drawn) [Compound 27, (5R,8S)-7-[(2S)-2-{[(2S)-2-cyclohexyl-2-({[1-(2-fluoroethyl)piperidin-2-yl]carbonyl}amino)acetyl]amino}-3,3-dimethylbutanoyl]-N-{(1S)-1-[(cyclopropylsulfonyl)carba-moyl]cyclohex-3-en-1-yl}-10,10-dimethyl-7-azadispiro[3.0.4.1]decane-8-carboxamide], the IC50 was 2850 nM.

As to `CC(C)(C)[C@H](NC(=O)C1CCCCN1CCF)C(=O)N[C@H](C(=O)N1C[C@]2(C[C@H]1C(=O)N[C@]1(C(=O)NS(=O)(=O)C3CC3)CC=CCC1)C(C)(C)C21CCC1)C(C)(C)C` (stereo partly drawn) [Compound 28, (5R,8S)-N-{(1S)-1-[(cyclopropylsulfonyl)carba-moyl]cyclohex-3-en-1-yl}-7-[(2S)-2-{[(2S)-2-({[1-(2-fluoroethyl)piperidin-2-yl]carbonyl}amino)-3,3-dimethylbutanoyl]amino}-3,3-dimethylbutanoyl]-10,10-dimethyl-7-azadispiro[3.0.4.1]decane-8-carboxamide], it took 3150 nM to reach half-maximal inhibition (IC50).

Compound `C=C[C@@H]1C[C@]1(NC(=O)[C@@H]1C[C@@]2(CN1C(=O)[C@@H](NC(=O)[C@@H](NC(=O)[C@@H]1CCCCN1CCF)C1CCCCC1)C(C)(C)C)C(C)(C)C21CCC1)C(=O)NS(=O)(=O)C1CC1` [Compound 29, (5R,8S)-7-[(2S)-2-{[(2S)-2-cyclohexyl-2-({[(2S)-1-(2-fluoroethyl)piperidin-2-yl]carbonyl}amino)acetyl]amino}-3,3-dimethylbutanoyl]-N-{(1R,2S)-1-[(cyclopropylsulfonyl)carba-moyl]-2-vinylcyclopropyl}-10,10-dimethyl-7-azadispiro[3.0.4.1]decane-8-carboxamide] displayed a 50% inhibitory concentration (IC50) of 1 nM.

The experiment is the same for the next values; noted with them: read-out: Protease IC50.
Consider `C=C[C@@H]1C[C@]1(NC(=O)[C@@H]1C[C@@]2(CN1C(=O)[C@@H](NC(=O)N[C@H](CN(C)S(=O)(=O)c1ccccn1)C(C)(C)C)C(C)(C)C)C(C)(C)C21CCC1)C(=O)NS(=O)(=O)C1CC1` [Compound 18, (5R,8S)-N-{(1R,2S)-1-[(cyclopropylsulfonyl)carba-moyl]-2-vinylcyclopropyl}-7-[(2S)-2-({[(1S)-2,2-dimethyl-1-{[methyl(pyridin-2-ylsulfonyl)amino]methyl}prop-yl]carbamoyl}amino)-3,3-dimethylbutanoyl]-10,10-dimethyl-7-azadispiro[3.0.4.1]decane-8-carboxamide], for which the IC50 was determined as 3 nM.

Consider `C=C[C@@H]1C[C@]1(NC(=O)[C@@H]1C[C@@]2(CN1C(=O)[C@@H](NC(=O)C1CCCN(C(C)=O)C1)C(C)(C)C)C(C)(C)C21CCC1)C(=O)NS(=O)(=O)C1CC1` (stereo partly drawn) [Compound 19, (5R,8S)-7-[(2S)-2-{[(1-acetylpiperidin-3-yl)carbonyl]amino}-3,3-dimethylbutanoyl]-N-{(1R,2S)-1-[(cyclopropylsulfonyl)carba-moyl]-2-vinylcyclopropyl}-10,10-dimethyl-7-azadispiro[3.0.4.1]decane-8-carboxamide], for which the IC50 came out at 350 nM.

In the case of `C=C[C@@H]1C[C@]1(NC(=O)[C@@H]1C[C@@]2(CN1C(=O)[C@@H](NC(=O)N[C@H](CN(C)S(=O)(=O)N(C)C)C(C)(C)C)C(C)(C)C)C(C)(C)C21CCC1)C(=O)NS(=O)(=O)C1CC1` [Compound 20, (5R,8S)-N-{(1R,2S)-1-[(cyclopropylsulfonyl)carba-moyl]-2-vinylcyclopropyl}-7-[(2S)-2-({[(1S)-1-({[(dimethylamino)sulfonyl] (methyl)amino}methyl)-2,2-dimethylpropyl]carbamoyl}amino)-3,3-dimethylbutanoyl]-10,10-dimethyl-7-azadispiro[3.0.4.1]decane-8-carboxamide], the half-inhibitory concentration (IC50) was determined as 2 nM.

Turning to `C=C[C@@H]1C[C@]1(NC(=O)[C@@H]1C[C@@]2(CN1C(=O)[C@@H](NC(=O)N[C@H](C(=O)N(C)C)C(C)(C)C)C(C)(C)C)C(C)(C)C21CCC1)C(=O)NS(=O)(=O)C1CC1` [Compound 30, (5R,8S)-N-{(1R,2S)-1-[(cyclopropylsulfonyl)carba-moyl]-2-vinylcyclopropyl}-7-[(2S)-2-({[(1S)-1-(dimethylcarbamoyl)-2,2-dimethylpropyl]carbamoyl}amino)-3,3-dimethylbutanoyl]-10,10-dimethyl-7-azadispiro[3.0.4.1]decane-8-carboxamide], the IC50 turned out to be 8 nM.

Consider `C=C[C@@H]1C[C@]1(NC(=O)[C@@H]1C[C@@]2(CN1C(=O)[C@@H](NC(=O)N[C@H](C(=O)N1CCOCC1)C(C)(C)C)C(C)(C)C)C(C)(C)C21CCC1)C(=O)NS(=O)(=O)C1CC1` [Compound 31, (5R,8S)-N-{(1R,2S)-1-[(cyclopropylsulfonyl)carba-moyl]-2-vinylcyclopropyl}-7-[(2S)-2-({[(1S)-2,2-dimethyl-1-(morpholin-4-ylcarbonyl)propyl]carbamoyl}amino)-3,3-dimethylbutanoyl]-10,10-dimethyl-7-azadispiro[3.0.4.1]decane-8-carboxamide], for which the 50% inhibitory concentration (IC50) was found to be 15 nM.

As to `C=C[C@@H]1C[C@]1(NC(=O)[C@@H]1C[C@@]2(CN1C(=O)[C@@H](NC(=O)N[C@H](C(=O)NC)C(C)(C)C)C(C)(C)C)C(C)(C)C21CCC1)C(=O)NS(=O)(=O)C1CC1` [Compound 32, (5R,8S)-N-{(1R,2S)-1-[(cyclopropylsulfonyl)carba-moyl]-2-vinylcyclopropyl}-7-[(2S)-2-({[(1S)-2,2-dimethyl-1-(methylcarbamoyl)propyl]carbamoyl}amino)-3,3-dimethylbutanoyl]-10,10-dimethyl-7-azadispiro[3.0.4.1]decane-8-carboxamide], the IC50 stood at 30 nM.
